These results are taken from ChEMBL document CHEMBL1828533, “Lipid and sulfur substituted prenylcysteine analogs as human Icmt inhibitors” (Bioorg Med Chem Lett, 2011).

In experiment [1] the target is T1, Protein-S-isoprenylcysteine O-methyltransferase (Homo sapiens, UniProt O60725). The experiment in a line: Inhibition of human ICMT at 10 uM by vapor diffusion assay.
In experiment [2] the target is T1, Protein-S-isoprenylcysteine O-methyltransferase. In words: Inhibition of human ICMT at 25 uM by vapor diffusion assay.
Experiment [3] shares this target. The experiment in a line: Inhibition of human ICMT by vapor diffusion assay.
For experiment [4] the target is unchanged. The experiment in a line: Substrate activity at human ICMT by vapor diffusion assay.

Active and inactive are the calls of the source. No cut-off for these calls is given here.

T1 sequence (O60725 whole entry, the tested form may be a part): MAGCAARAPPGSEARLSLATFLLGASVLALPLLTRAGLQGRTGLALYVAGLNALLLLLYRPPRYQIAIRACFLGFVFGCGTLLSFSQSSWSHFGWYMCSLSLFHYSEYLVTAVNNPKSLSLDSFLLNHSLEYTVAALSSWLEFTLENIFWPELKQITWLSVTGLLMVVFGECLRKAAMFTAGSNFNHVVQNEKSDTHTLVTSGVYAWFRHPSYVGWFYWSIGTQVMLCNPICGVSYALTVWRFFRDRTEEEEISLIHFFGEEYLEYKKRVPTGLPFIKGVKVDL

For orientation: inhibition means the change of the read-out against control, counted positive when it falls. Read a high inhibition as a strong effect. For `CC(=O)N[C@@H](CSC/C=C(/Cc1ccc(-c2ccccc2)cc1)c1ccccc1)C(=O)O`, the inhibition in experiment [1] is 26.6%.

Consider `CC(=O)N[C@@H](CSC/C=C(/C)CC/C=C(/C)CCC=C(C)C)C(=O)O`, for which the inhibition in experiment [2] was 100%.

For orientation: IC50 means the midpoint of a concentration-inhibition curve. Lower therefore signals greater potency. Take `CCCCCCCCc1ccc(CC/C(C)=C/CSC[C@H](NC(C)=O)C(=O)O)cc1`: the IC50 in experiment [3] is 34.6 µM. The same molecule came in with an inhibition in experiment [1] of 31.1%.

Regarding `CC(=O)N[C@@H](CSC/C=C(\C)COc1ccc(Oc2ccccc2)cc1)C(=O)O`, the inhibition in experiment [1] amounted to 15.5%.

For `CC(C)=CCC/C(C)=C/CC/C(C)=C/Cc1cn(C[C@H](NC(=O)CCS(=O)(=O)c2ccccc2)C(=O)O)nn1`, the outcome in experiment [4] was inactive. In addition, the inhibition in experiment [1] was 22.7%.

For the molecule `CCCCCCc1ccc(CC/C(C)=C/CSC[C@H](NC(C)=O)C(=O)O)cc1`, the inhibition in experiment [1] was found to be 18.8%.

In experiment [1], `CC(=O)N[C@@H](CSC/C=C(/Cc1ccc2c(c1)Cc1ccccc1-2)c1ccccc1)C(=O)O` yielded an inhibition of 25.3%.

For `COc1ccc([N+](=O)[O-])c(C(=O)N[C@@H](Cn2cc(C/C=C(\C)CC/C=C(\C)CCC=C(C)C)nn2)C(=O)O)c1`, the outcome in experiment [4] was inactive. In experiment [1], this molecule came in with an inhibition of 10.1%.

In experiment [1], `CC(=O)N[C@@H](CSC/C=C(\C)COc1ccc(Cc2ccccc2)cc1)C(=O)O` yielded an inhibition of 9.8%.

With `CCCCCc1ccc(CC/C(C)=C/CSC[C@H](NC(C)=O)C(=O)O)cc1`, the inhibition in experiment [1] came out at 23.1%.

In turn, `CC(=O)N[C@@H](CSC/C=C(/Cc1ccccc1)c1ccccc1)C(=O)O` displayed an inhibition in experiment [1] of 15.7%.

On to `CC(=O)N[C@@H](Cn1cc(C/C=C(\C)CC/C=C(\C)CCC=C(C)C)nn1)C(=O)O`, for which, in experiment [4], the outcome was inactive. This molecule came in with an inhibition in experiment [1] of 19.5%.

Turning to `CC(=O)N[C@@H](CSC/C=C(\C)CCCCOc1ccc2ccccc2c1)C(=O)O`, in experiment [1], the inhibition was 22.4%.

`CC(C)=CCC/C(C)=C/CC/C(C)=C/Cc1cn(C[C@H](NC(=O)c2ccccc2-c2ccccc2)C(=O)O)nn1`: in experiment [4], the result was inactive. Further, the inhibition in experiment [1] came to 17%.

Molecule `CC(=O)N[C@@H](CSC/C=C(\C)COc1ccc2ccccc2c1)C(=O)O` gave an inhibition in experiment [1] of 14.5%.

For the molecule `CC(=O)N[C@@H](CSC/C=C(\C)CCCCOc1ccc(Oc2ccccc2)cc1)C(=O)O`, the inhibition in experiment [1] worked out at 19.4%.

`CC(C)=CCC/C(C)=C/CC/C(C)=C/Cc1cn(C[C@H](NC(=O)c2ccccc2Oc2ccccc2)C(=O)O)nn1` registered an IC50 in experiment [3] of 19.4 µM. Moreover, in experiment [1], the inhibition turned out to be 35.9%.

In experiment [1], `CCCc1ccc(CC/C(C)=C/CSC[C@H](NC(C)=O)C(=O)O)cc1` came in with an inhibition of 20.7%.
